IC50 data for one compound are collected here from patent US9981916B2 (Genentech, Inc., priority 2013, dated 2018).

The experiment deals with T1, RORc ligand binding domain (Homo sapiens, UniProt P51449).
T1 construct: host or cells: E. coli
T1 sequence (P51449 269-508 limits assumed): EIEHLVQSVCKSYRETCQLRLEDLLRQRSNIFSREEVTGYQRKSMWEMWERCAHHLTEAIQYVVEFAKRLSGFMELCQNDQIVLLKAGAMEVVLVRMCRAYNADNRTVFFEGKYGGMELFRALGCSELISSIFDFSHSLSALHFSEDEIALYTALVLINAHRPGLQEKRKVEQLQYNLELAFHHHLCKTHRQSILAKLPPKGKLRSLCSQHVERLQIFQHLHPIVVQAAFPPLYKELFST
Briefly: In vitro RORc ligand binding assay (25-[3H]hydroxycholesterol displacement, filter binding). The following applies: 6 nM 25-[3H]hydroxycholesterol, 0.6 ug/mL RORc receptor, 3 h at 25° C. An outline of the steps: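 Filter-binding displacement of 6 nM 25-[3H]hydroxycholesterol from RORc receptor (0.6 ug/mL) in 50 mM HEPES pH 7.4, 150 mM NaCl, 5 mM MgCl2, 1 mM DTT, 0.01% BSA, 5% DMSO; 3 h at 25° C. NSB defined with 1 uM 25-hydroxycholesterol; scintillation counting gave Kiapp, IC50 or % inhibition (screening at 1 and 10 uM).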

In general, IC50 refers to the concentration that inhibits the measured activity by half. A higher IC50 goes with weaker potency in that assay. `CCN(C[C@@]12CC[C@@H](c3cc(-c4c(F)cccc4F)nnc31)C2(C)C)S(=O)(=O)CCC(F)(F)F` [Example 345, N-(((5R,8S)-3-(2,6-difluorophenyl)-9,9-dimethyl-5,6,7,8-tetrahydro-5,8-methanocinnolin-8-yl)methyl)-N-ethyl-3,3,3-trifluoropropane-1-sulfonamide] registered an IC50 of 11 nM.
